Measured values as given in ChEMBL document CHEMBL5620428, “Discovery of tetrahydroisoquinolineindole derivatives as first dual PRMT5 inhibitors/hnRNP E1 upregulators: Design, synthesis and biological evaluation” (Eur J Med Chem, 2023).
Blank lines part the entries; values can stand above or below the compound they belong to. Calls of active or inactive are those of the source. The rule behind the calls is not given here.

How the values were obtained:
[1] = biological target: Protein arginine N-methyltransferase 5 (Homo sapiens, UniProt O14744); test: Inhibition of PRMT5 (unknown origin)
Protein arginine N-methyltransferase 5, sequence (O14744 whole entry): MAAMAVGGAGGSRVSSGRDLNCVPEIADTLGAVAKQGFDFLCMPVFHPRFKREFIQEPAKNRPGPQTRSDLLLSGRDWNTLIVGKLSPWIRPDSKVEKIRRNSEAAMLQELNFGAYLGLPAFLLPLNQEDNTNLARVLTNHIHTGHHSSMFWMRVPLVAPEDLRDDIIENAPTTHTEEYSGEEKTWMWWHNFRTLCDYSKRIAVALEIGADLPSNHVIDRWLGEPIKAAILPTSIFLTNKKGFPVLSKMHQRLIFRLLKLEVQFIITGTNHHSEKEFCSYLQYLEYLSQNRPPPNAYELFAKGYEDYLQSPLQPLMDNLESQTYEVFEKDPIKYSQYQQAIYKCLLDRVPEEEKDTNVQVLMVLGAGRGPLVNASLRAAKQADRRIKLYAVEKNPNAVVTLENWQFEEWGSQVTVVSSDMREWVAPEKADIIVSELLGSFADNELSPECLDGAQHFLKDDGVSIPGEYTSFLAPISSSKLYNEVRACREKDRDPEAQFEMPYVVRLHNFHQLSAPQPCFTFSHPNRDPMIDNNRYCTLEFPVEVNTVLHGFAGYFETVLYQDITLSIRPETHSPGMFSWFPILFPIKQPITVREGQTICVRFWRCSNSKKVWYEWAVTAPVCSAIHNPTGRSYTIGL

A549 [2] = test: Antiproliferative activity against human A549 cells assessed as reduction in cell viability at 25 uM incubated for 24 hrs by SRB assay; format: functional, cell-based
[3] = Half life in Sprague-Dawley rat at 10 mg/kg, po measured upto 24 hrs by LC-MS/MS analysis; format: ADME, organism-based; conditions: in vivo
[4] = Tmax in Sprague-Dawley rat at 10 mg/kg, po measured upto 24 hrs by LC-MS/MS analysis; format: ADME, organism-based; conditions: in vivo
[5] = Metabolic stability in human liver microsome assessed as half life measured upto 4 hrs in presence of NADPH by LC-MS/MS analysis; format: ADME; conditions: liver microsomes
[6] = AUC (0 to infinity) in Sprague-Dawley rat at 10 mg/kg, po measured upto 24 hrs by LC-MS/MS analysis; format: ADME, organism-based; conditions: in vivo
[7] = Metabolic stability in rat liver microsome assessed as half life measured upto 4 hrs in presence of NADPH by LC-MS/MS analysis; format: ADME; conditions: liver microsomes
[8] = AUC (0 to t) in Sprague-Dawley rat at 10 mg/kg, po measured upto 24 hrs by LC-MS/MS analysis; format: ADME, organism-based; conditions: in vivo
[9] = Cmax in Sprague-Dawley rat at 10 mg/kg, po measured upto 24 hrs by LC-MS/MS analysis; format: ADME, organism-based; conditions: in vivo
A549 [10] = test: Inhibition of cell migration human A549 cells assessed as decrease in migration distance at 12.5 to 25 uM incubated upto 12 hrs by wound healing assay; format: functional, cell-based; conditions: dose 12.5-25 µM
[11] = biological target: Protein arginine N-methyltransferase 1 (Homo sapiens, UniProt Q99873); test: Inhibition of PRMT1 (unknown origin)
Protein arginine N-methyltransferase 1, sequence (Q99873 whole entry): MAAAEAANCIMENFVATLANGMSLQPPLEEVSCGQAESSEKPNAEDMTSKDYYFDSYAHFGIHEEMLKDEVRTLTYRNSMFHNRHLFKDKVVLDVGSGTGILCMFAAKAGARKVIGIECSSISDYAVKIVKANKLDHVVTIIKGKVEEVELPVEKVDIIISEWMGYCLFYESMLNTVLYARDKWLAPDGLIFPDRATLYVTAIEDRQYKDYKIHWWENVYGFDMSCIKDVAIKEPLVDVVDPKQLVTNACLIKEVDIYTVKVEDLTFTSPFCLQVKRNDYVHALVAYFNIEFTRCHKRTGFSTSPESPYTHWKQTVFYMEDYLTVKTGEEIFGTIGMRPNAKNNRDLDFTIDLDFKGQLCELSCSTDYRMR

[12] = Antiproliferative activity against human L02 cells assessed as inhibition of cell growth incubated for 24 hrs by SRB assay; format: toxicity, cell-based
A549 [13] = test: Induction of apoptosis in human A549 cells transfected in hnRNP E1 siRNA assessed as reduction in cell number incubated for 24 hrs by Hoechst 33258 staining based analysis; format: functional
[14] = AUC (0 to t) in Sprague-Dawley rat at 2 mg/kg, iv measured upto 24 hrs by LC-MS/MS analysis; format: ADME, organism-based; conditions: in vivo
A549 [15] = test: Induction of apoptosis in human A549 cells assessed as nuclear fragmentation incubated for 24 hrs by Hoechst 33342 staining based analysis; format: functional, cell-based; conditions: dose 12.5-50 µM
MDA-MB-231 = test: Antiproliferative activity against human MDA-MB-231 cells assessed as inhibition of cell growth incubated for 24 hrs by SRB assay; format: functional, cell-based; conditions: MDA-MB-231, 24 h
A549 [16] = test: Antiproliferative activity against human A549 cells assessed as inhibition of cell growth incubated for 24 hrs by SRB assay; format: functional, cell-based; conditions: A549, 24 h
[17] = AUC (0 to infinity) in Sprague-Dawley rat at 2 mg/kg, iv measured upto 24 hrs by LC-MS/MS analysis; format: ADME, organism-based; conditions: in vivo
A549 [18] = test: Anticancer activity against human A549 cells assessed as decrease in cell number incubated for 24 hrs by SRB assay; format: functional, cell-based; conditions: dose 12.5-50 µM
MCF7 = test: Antiproliferative activity against human MCF7 cells assessed as inhibition of cell growth incubated for 24 hrs by SRB assay; format: functional, cell-based; conditions: MCF7, 24 h
[19] = Half life in Sprague-Dawley rat at 2 mg/kg, iv measured upto 24 hrs by LC-MS/MS analysis; format: ADME, organism-based; conditions: in vivo
A549 [20] = test: Induction of apoptosis in human A549 cells at 2.5 to 50 uM incubated for 24 hrs by Hoechst 33342 staining based analysis; format: functional; conditions: dose 2.5-50 µM
[21] = Cmax in Sprague-Dawley rat at 2 mg/kg, iv measured upto 24 hrs by LC-MS/MS analysis; format: ADME, organism-based; conditions: in vivo
[22] = biological target: T1, Histone-arginine methyltransferase CARM1 (Homo sapiens, UniProt Q86X55); test: Inhibition of PRMT4 (unknown origin)
T1 sequence (Q86X55 whole entry): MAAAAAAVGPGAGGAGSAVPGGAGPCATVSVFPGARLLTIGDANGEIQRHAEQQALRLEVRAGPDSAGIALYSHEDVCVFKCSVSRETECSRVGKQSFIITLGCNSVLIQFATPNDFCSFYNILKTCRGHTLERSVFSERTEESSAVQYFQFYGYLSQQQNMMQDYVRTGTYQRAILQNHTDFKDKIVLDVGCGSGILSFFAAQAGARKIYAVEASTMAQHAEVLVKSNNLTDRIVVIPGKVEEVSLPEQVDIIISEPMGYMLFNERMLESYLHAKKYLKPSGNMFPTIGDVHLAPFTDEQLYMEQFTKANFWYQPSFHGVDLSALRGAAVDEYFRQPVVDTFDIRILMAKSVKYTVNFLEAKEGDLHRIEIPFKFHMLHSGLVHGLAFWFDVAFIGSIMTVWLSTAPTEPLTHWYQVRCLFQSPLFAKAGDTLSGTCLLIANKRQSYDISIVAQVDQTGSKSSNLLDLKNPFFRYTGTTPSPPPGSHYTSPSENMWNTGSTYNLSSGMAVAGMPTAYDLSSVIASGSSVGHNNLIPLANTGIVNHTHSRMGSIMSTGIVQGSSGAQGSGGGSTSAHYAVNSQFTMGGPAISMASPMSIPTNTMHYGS

[23] = Clearance in Sprague-Dawley rat at 2 mg/kg, iv measured upto 24 hrs by LC-MS/MS analysis; format: ADME, organism-based; conditions: in vivo
[24] = Volume of distribution in Sprague-Dawley rat at 2 mg/kg, iv measured upto 24 hrs by LC-MS/MS analysis; format: ADME, organism-based; conditions: in vivo
A549 [25] = test: Inhibition of cell migration human A549 cells transfected with hnRNP E1 siRNA incubated upto 12 hrs by wound healing assay; format: functional, cell-based
[26] = Oral bioavailability in Sprague-Dawley rat at 10 mg/kg measured upto 24 hrs by LC-MS/MS analysis; format: ADME, organism-based; conditions: in vivo
HepG2 = test: Antiproliferative activity against human HepG2 cells assessed as inhibition of cell growth incubated for 24 hrs by SRB assay; format: functional, cell-based; conditions: HepG2, 24 h
[27] = Bioavailability in Sprague-Dawley rat at 2 mg/kg, iv measured upto 24 hrs by LC-MS/MS analysis; format: ADME, organism-based; conditions: in vivo
A549 [28] = test: Upregulation of hnRNP E1 gene expression in human A549 cells at 12.5 to 50 uM incubated for 24 hrs by Western blot analysis; format: functional, cell-based; conditions: dose 12.5-50 µM

- IC50 [1]: 1.8 µM
Compound: Cc1cccc2c1ccn2C[C@H](O)CN1CCc2ccccc2C1
- Activity (A549 [2]): Active

- IC50 [1]: 8.2 µM
Compound: O[C@H](CN1CCc2ccccc2C1)Cn1ccc2cc(Cl)ccc21
- Activity (A549 [2]): Active

- IC50 [1]: 1.21 µM
Compound: N#Cc1ccc2ccn(C[C@H](O)CN3CCc4ccccc4C3)c2c1
- Activity (A549 [2]): Active

- IC50 [1]: 12 µM
Compound: N#Cc1ccc2c(ccn2C[C@H](O)CN2CCc3ccccc3C2)c1
- Activity (A549 [2]): Active

- IC50 [1]: 18.8 µM
Compound: O[C@H](CN1CCc2ccccc2C1)Cn1ccc2cc(F)ccc21
- Activity (A549 [2]): Active

- IC50 [1]: 0.53 µM
Compound: O[C@H](CN1CCc2ccccc2C1)Cn1ccc2ccc(Cl)cc21
- Activity (A549 [2]): Active

- IC50 [11]: > 20 µM
- AUC(0-t) at 24 h [14]: 1250 ng·h/mL
- IC50 (MDA-MB-231): 20.5 µM
- half-life [3]: 6.7 h
- IC50 (A549 [16]): 19.1 µM
- Tmax [4]: 2.7 h
- AUC(0-inf) [17]: 1280 ng·h/mL
- IC50 (MCF7): 23.6 µM
- half-life [19]: 4.1 h
- half-life [5]: 2.21 h
- Cmax [21]: 182 ng/mL
- IC50 [22]: > 20 µM
- AUC(0-inf) [6]: 2180 ng·h/mL
- clearance [23]: 26.7 mL/min/kg
- half-life [7]: 0.342 h
- Vd [24]: 9.3 L/kg
- IC50 [1]: 0.31 µM
- AUC(0-t) at 24 h [8]: 1970 ng·h/mL
- bioavailability [26]: 31.4%
- Cmax [9]: 160 ng/mL
- IC50 (HepG2): 27.7 µM
- F [27]: 100%
Compound: COc1ccc2c(ccn2C[C@H](O)CN2CCc3ccccc3C2)c1
- Activity (A549 [10]): Active
- IC50 at 24 h [12]: > 100 µM
- Activity (A549 [13]): Active
- Activity (A549 [15]): Dose-Dependent Effect
- Activity (A549 [18]): Dose-Dependent Effect
- Activity (A549 [20]): 68%
- Activity (A549 [25]): inactive
- Activity (A549 [2]): Active
- Activity (A549 [28]): Active

- IC50 [1]: 4.58 µM
Compound: COc1cccc2c1ccn2C[C@H](O)CN1CCc2ccccc2C1
- Activity (A549 [2]): Active

The next lines start with the compound.

Compound: N#Cc1cccc2c1ccn2C[C@H](O)CN1CCc2ccccc2C1
- IC50 [1]: 5.01 µM
- Activity (A549 [2]): Active

Compound: O=C(NC[C@H](O)CN1CCc2ccccc2C1)c1ccc2c(c1)CCN(C(=O)c1ccc(Br)cc1)C2
- half-life [3]: 2.31 h
- Tmax [4]: 0.3 h
- half-life [5]: 1.45 h
- AUC(0-inf) [6]: 233 ng·h/mL
- half-life [7]: 0.173 h
- IC50 [1]: 0.008 µM
- AUC(0-t) at 24 h [8]: 223 ng·h/mL
- Cmax [9]: 77.1 ng/mL

Compound: O[C@H](CN1CCc2ccc(Br)cc2C1)Cn1ccc2ccc(Br)cc21
- IC50 [1]: 3.25 µM
- Activity (A549 [2]): Active

Compound: CC1c2ccccc2CCN1C[C@@H](O)Cn1ccc2ccc(Br)cc21 (stereo partly specified)
- Activity (A549 [2]): Active

Compound: COc1ccc2c(ccn2C[C@H](O)CN2CCc3cc(O)ccc3C2)c1
- IC50 [1]: 0.12 µM
- Activity (A549 [2]): Active

Compound: COc1ccc2c(ccn2C[C@H](O)CN2CCc3ccc(Br)cc3C2)c1
- IC50 [1]: 33.2 µM
- Activity (A549 [2]): Active

Compound: COc1ccc2c(ccn2C[C@H](O)CN2CCc3cc(OC)c(OC)cc3C2)c1
- IC50 [1]: 40.4 µM
- Activity (A549 [2]): Active

Compound: Cc1cc2cc(F)ccc2n1C[C@H](O)CN1CCc2ccccc2C1
- IC50 [1]: 22.5 µM
- Activity (A549 [2]): Active
